Measured values taken from US20040157867A1, “Pyrimidine phosphorylase as a target for imaging and therapy” (priority 2004, published 2004).
Like-named read-outs stand apart in the source and are kept apart here.

Legend:
[1] = system: U937; experiment: Growth inhibition of U937 tumor cells by BrUra; assay type: cell-based, human; conditions: 72 hr
Experimental: (§1) The five human-derived tumor cell lines shown below were incubated with BrUra at concentrations from 0.5 to 4.5 mM for 72 hours. (Cell lines are available at the ATCC, Manassas, Va.) Separate incubations were conducted in the presence or absence of 50 μM dUrd. Growth inhibition was determined as a percentage of control values for cells incubated without BrUra or dUrd. Consistent with the experiments described in Example 8, co-incubation with dUrd increased cytotoxicity of BrUra in all groups. As expected from their high level of TPase expression, U937 were the only cells with notable toxicity at 0.5 mM, and also the greatest toxicity at 1.5 and 4.5 mM. CEM, MOLT4, and K562 were substantially less affected by incubation with BrUra, consistent with a low intracellular activation rate because of low TPase expression.
(§2) % Growth Inhibition, Based Upon Control Doubling Time=24 Hr. BrUra Concentrations Ranged from 0.5 to 4.5 mM. Incubations were Conducted for 72 Hr in the Presence or Absence of 50 μM ddUrd.

[2] = system: Dunning rat prostatic tumors; experiment: 5-X-Ura incorporation into tumor DNA in vivo; conditions: BrUra intravenously, tumors harvested 105 minutes after injection
Experimental: Dunning rat prostatic tumors were implanted (250,000 cells) subcutaneously in 3 rats. Two weeks post-implantation, the tumors had reached 7-20 g in size and the rats weighed about 250 g. At 2 weeks post-implantation, TPase was measured. BrUra was prepared in an aqueous solution, adjusted to pH 9 (the same formulation used clinically for its analog, FUra), and injected intravenously via a tail vein. The rats were sacrificed 105 minutes after the injection, and the tumors were harvested. DNA from the tumor was isolated, digested, and the nucleosides analyzed by HPLC (Klecker, 1994). BrdUrd was found in the DNA of the tumors, replacing 0.15% of the dThd bases.

[3] = molecular target: T1, TPase (Homo sapiens, UniProt P19971); experiment: TPase inhibition in tumor cells co-incubated with human liver cytosol ([3H]-dThd incorporation into DNA); assay type: cell-based; conditions: BrUra 500 μM, U-937 or MOLT-4 cells with human liver cytosol (S100), 5-35% without BrUra
T1 sequence (P19971 11-482): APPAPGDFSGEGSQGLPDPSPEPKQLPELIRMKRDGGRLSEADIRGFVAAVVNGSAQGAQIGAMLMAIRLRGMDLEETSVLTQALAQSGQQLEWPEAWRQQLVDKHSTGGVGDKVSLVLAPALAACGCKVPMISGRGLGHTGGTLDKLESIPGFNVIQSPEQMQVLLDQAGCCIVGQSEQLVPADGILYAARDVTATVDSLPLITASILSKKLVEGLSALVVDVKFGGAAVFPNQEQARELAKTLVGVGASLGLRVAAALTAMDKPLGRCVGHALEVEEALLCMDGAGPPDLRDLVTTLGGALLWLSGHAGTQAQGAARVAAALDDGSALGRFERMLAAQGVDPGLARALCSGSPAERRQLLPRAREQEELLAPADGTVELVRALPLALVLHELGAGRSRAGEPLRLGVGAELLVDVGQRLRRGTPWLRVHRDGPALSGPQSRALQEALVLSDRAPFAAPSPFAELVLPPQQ
Experimental: [^3H]-dThd (0.02 μM) or [^3H]-dUrd (0.1 μM) was incubated with either U-937 or MOLT-4 tumor cells, and incorporation of [[…] into DNA was measured after 3 hours. Cytosol (S100) was prepared from human liver by differential centrifugation. This cytosol, which contains TPase, was co-incubated with U-937 or MOLT4 tumor cells to simulate the degradation of pyrimidine nucleosides in the body. Incorporation of [^3H]-dThd into DNA was decreased to 5-35% of baseline levels. When BrUra (500 μM) was also added to the incubation mixture, TPase inhibition was observed as increased incorporation of [^3H]-dThd in DNA, back to 39-89% of baseline levels.

[4] = system: CEM; experiment: Growth inhibition of CEM tumor cells by BrUra; assay type: cell-based, human; conditions: 72 hr
Experimental: as §1, §2

[5] = system: MOLT4; experiment: Growth inhibition of MOLT4 tumor cells by BrUra; assay type: cell-based, human; conditions: 72 hr
Experimental: as §1, §2

[6] = system: K562; experiment: Growth inhibition of K562 tumor cells by BrUra; assay type: cell-based, human; conditions: 72 hr
Experimental: as §1, §2

[7] = system: Raji; experiment: Growth inhibition of Raji tumor cells by BrUra; assay type: cell-based, human; conditions: 72 hr
Experimental: as §1, §2

[8] = molecular target: T1, TPase; experiment: TPase inhibition in intact human hepatocytes ([3H]-Ura formation from [3H]-dUrd); assay type: cell-based; set-up: Cryopreserved human hepatocytes were procured from In Vitro Technologies, Inc; host or cells: cryopreserved human hepatocytes; conditions: [3H]-dUrd 0.2 μM, one hour
Experimental: Cryopreserved human hepatocytes were procured from In Vitro Technologies, Inc. (Catonsville, Md.) and processed according to the supplier's instructions. TPase activity was monitored for one hour by measuring formation of [^3H]-Ura from [^3H]-dUrd, 0.2 μM. Co-incubation of tritiated dUrd with 100 μM BrUra inhibited TPase by 48%, and 500 μM of BrUra inhibited TPase by 85%.

[9] = cited from earlier work
[10] = system: U-937 cells implanted subcutaneously in nude mice; experiment: Incorporation of [3H]-BrUra into tumor DNA in vivo, modulation with eniluracil; conditions: eniluracil 2 mg/kg i.p. thirty minutes prior to i.v. [3H]-BrUra, 24 hours
Experimental: U-937 cells (ATCC; Manassas, Va.) were implanted subcutaneously in nude mice. When tumors grew to about 0.5 gram, [^3H]-BrUra was injected i.v. One set of mice received eniluracil, 2 mg/kg, injected i.p. thirty minutes prior to i.v. [3H]-BrUra, and the other set received no treatment prior to [^3H]-BrUra i.v. Both sets of mice were killed 24 hours later, and tumors and blood removed. DNA from tumors was extracted and analyzed using our established techniques (Klecker et al., 1994). [^3H]-BrdUrd was found in DNA in tumors by radiochromatography, indicating conversion of [^3H]-BrUra in vivo, similar to our results for cell culture.

[11] = system: U-937 cells; experiment: Enhancement of BrUra trapping into DNA by dR-1-P prodrugs; assay type: cell-based, human; conditions: 24 hours, 20 μM BrUra and 20 μM deoxyribonucleoside
Experimental: The effect of dR-1-P prodrugs was examined in U-937 cells. Cells were incubated for 24 hours with 20 μM BrUra and 20 μM of six different deoxyribonucleosides. The use of prodrugs for dR-1-P is described as a way of driving the reaction catalyzed by TPase in the direction of thymidine production. As illustrated in the bar chart, in FIG. 3, the maximum enhancement of BrUra trapping in DNA was 24-fold, for dUrd. An increase of 6-fold was found for dIno.

O=c1[nH]cc(Br)c(=O)[nH]1 [BrUra, bromouracil]
% Growth Inhibition ([1]; U937, BrUra 0.5 mM, with 50 μM dUrd): 28%
% Growth Inhibition ([1]; U937, BrUra 0.5 mM, without dUrd): 16%
% Growth Inhibition ([1]; U937, BrUra 1.5 mM, with 50 μM dUrd): 77%
% Growth Inhibition ([1]; U937, BrUra 1.5 mM, without dUrd): 47%
% Growth Inhibition ([1]; U937, BrUra 4.5 mM, with 50 μM dUrd): 100%
% Growth Inhibition ([1]; U937, BrUra 4.5 mM, without dUrd): 100%
BrdUrd found in DNA of the tumors, replacing dThd bases [2]: 0.15%
incorporation of [3H]-dThd in DNA, of baseline levels [3]: 39-89%
% Growth Inhibition ([4]; BrUra 0.5 mM, with 50 μM dUrd): 13%
% Growth Inhibition ([4]; BrUra 0.5 mM, without dUrd): 6%
% Growth Inhibition ([4]; BrUra 1.5 mM, with 50 μM dUrd): 65%
% Growth Inhibition ([4]; BrUra 1.5 mM, without dUrd): 23%
% Growth Inhibition ([4]; BrUra 4.5 mM, with 50 μM dUrd): 95%
% Growth Inhibition ([4]; BrUra 4.5 mM, without dUrd): 89%
% Growth Inhibition ([5]; MOLT4, BrUra 0.5 mM, with 50 μM dUrd): 8%
% Growth Inhibition ([5]; MOLT4, BrUra 0.5 mM, without dUrd): 6%
% Growth Inhibition ([5]; MOLT4, BrUra 1.5 mM, with 50 μM dUrd): 25%
% Growth Inhibition ([5]; MOLT4, BrUra 1.5 mM, without dUrd): 26%
% Growth Inhibition ([5]; MOLT4, BrUra 4.5 mM, with 50 μM dUrd): 85%
% Growth Inhibition ([5]; MOLT4, BrUra 4.5 mM, without dUrd): 66%
% Growth Inhibition ([6]; K562, BrUra 0.5 mM, with 50 μM dUrd): −6%
% Growth Inhibition ([6]; K562, BrUra 0.5 mM, without dUrd): −7%
% Growth Inhibition ([6]; K562, BrUra 1.5 mM, with 50 μM dUrd): 28%
% Growth Inhibition ([6]; K562, BrUra 1.5 mM, without dUrd): 13%
% Growth Inhibition ([6]; K562, BrUra 4.5 mM, with 50 μM dUrd): 77%
% Growth Inhibition ([6]; K562, BrUra 4.5 mM, without dUrd): 57%
% Growth Inhibition ([7]; BrUra 0.5 mM, with 50 μM dUrd): 9%
% Growth Inhibition ([7]; BrUra 0.5 mM, without dUrd): 2%
% Growth Inhibition ([7]; BrUra 1.5 mM, with 50 μM dUrd): 24%
% Growth Inhibition ([7]; BrUra 1.5 mM, without dUrd): 27%
% Growth Inhibition ([7]; BrUra 4.5 mM, with 50 μM dUrd): 67%
% Growth Inhibition ([7]; BrUra 4.5 mM, without dUrd): 65%
TPase inhibition ([8]; 100 μM BrUra): 48%
TPase inhibition ([8]; 500 μM BrUra): 85%

O=c1[nH]cc(F)c(=O)[nH]1 [5-FUra, 5-fluorouracil]
increase in 5-FUra exposure ([9]; presence versus absence of eniluracil): 50- to 100 fold
Plasma clearance of 5-FUra ([9]; with eniluracil): 0.1 L/min
recovered unchanged in the urine ([9]; with eniluracil): 77%
tolerated dose upon continuous dosing ([9]; with eniluracil): 2 mg/day per square meter of body surface
Plasma clearance of 5-FUra ([9]; without eniluracil): 5.0 L/min
recovered unchanged in the urine ([9]; without eniluracil): less than 10%

C#Cc1c[nH]c(=O)[nH]c1=O [eniluracil]
increase of incorporation of radioactivity into DNA from [3H]-BrUra [10]: five-fold

OC[C@H]1O[C@@H](n2cnc3c(O)ncnc32)C[C@@H]1O [dIno, deoxyinosine]
enhancement of BrUra trapping in DNA [11]: 6 fold

O=c1ccn([C@H]2C[C@H](O)[C@@H](CO)O2)c(=O)[nH]1 [dUrd]
enhancement of BrUra trapping in DNA [11]: 24 fold
